The values below are quoted from earlier work in PubChem BioAssay AID1259409 (Chemical Carcinogenesis Research Information System (CCRIS), 2018).

This series concerns rodent chemically induced tumor inhibition, incidence and multiplicity. Nature of the series: CCRIS tumor inhibitor studies. The following applies: 3817-11-6, Dose [Inhibitor]: 0, Promoter: NONE USED.

Several values for one entry are separate records, joined by “and”; a condition that tells them apart may be missing. Equal values may be shown once.

Take `CC[C@H](C)[C@@H](NC(=O)[C@@H](CCC(=O)O)NC(=O)[C@@H](CO)NC(=O)[C@@H](CO)NC(=O)[C@H](NC(=O)[C@@H](CC(=O)O)NC(=O)[C@H](NC(=O)[C@H](C)NC(=O)[C@H](C)NC(=O)[C@@H](CC(=O)O)NC(=O)[C@@H](CO)NC(=O)[C@H](N)CS)C(C)C)C(C)C)C(=O)N[C@@H](C(=O)N[C@@H](C(=O)N[C@H](CCCCN)C(=O)N[C@H](CC(=O)O)C(=O)N[C@H](CC(C)C)C(=O)N[C@H](CCCCN)C(=O)N[C@H](CCC(=O)O)C(=O)N[C@H](CCCCN)C(=O)N[C@H](CCCCN)C(=O)N[C@H](CCC(=O)O)C(=O)N[C@@H](C(=O)N[C@@H](C(=O)N[C@H](CCC(=O)O)C(=O)N[C@H](CCC(=O)O)C(=O)N[C@@H](C)C(=O)N[C@H](CCC(=O)O)C(=O)O)C(C)C)C(C)C)C(C)C)[C@H](C)O`: the “tumour outcome (control, treated, inhibition, significance)” value (Carcinogen: N-BUTYL-N-(4-HYDROXYBUTYL)NITROSAMINE, 30 UG THYMOSIN FRACTION 5 IN 100 µL SALINE INJECTED INTO RIGHT THIGH 2/WK FOR 20 WK (STUDY DURATION: 20 WK), Route [Inhibitor]: INTRAMUSCULAR, Species: MOUSE, Strain/Sex: C3H/HEJ/FEMALE, Target Tissue: Type of Lesion: BLADDER: CARCINOMA, Dose [Carcinogen]: 0.05% (W/V) SOLUTION IN DRINKING WATER WITH 0.001% (W/V) TWEEN 80 FOR 20 WK) is given as 6/11 (55%), 2/11 (18%), 67%, not significant; the “tumour outcome (control, treated, inhibition, significance)” value (Carcinogen: N-BUTYL-N-(4-HYDROXYBUTYL)NITROSAMINE, 30 UG THYMOSIN FRACTION 5 IN 100 µL SALINE INJECTED INTO RIGHT THIGH 2/WK FOR 25 WK (STUDY DURATION: 25 WK), Route [Inhibitor]: INTRAMUSCULAR, Species: MOUSE, Strain/Sex: C3H/HEJ/FEMALE, Target Tissue: Type of Lesion: BLADDER: CARCINOMA, Dose [Carcinogen]: 0.05% (W/V) SOLUTION IN DRINKING WATER WITH 0.001% (W/V) TWEEN 80 FOR 25 WK) is given as 9/16 (56%), 8/13 (62%), -11%, not significant; the “tumour outcome (control, treated, inhibition, significance)” value (Carcinogen: N-BUTYL-N-(4-HYDROXYBUTYL)NITROSAMINE, 600 UG THYMOSIN FRACTION 5 2/WK FOR 12 WK BEGINNING POST CARCINOGEN TREATMENT (STUDY DURATION: 20 WK), Route [Inhibitor]: SUBCUTANEOUS, Species: MOUSE, Strain/Sex: NON/SHI/MALE, Target Tissue: Type of Lesion: RENAL PELVIS: CARCINOMA, Dose [Carcinogen]: 0.05% IN DRINKING WATER FOR 8 WK) is 3/31 (10%), 5/32 (16%), -60%, not significant and 7/29 (24%), 7/29 (24%), 0%, not significant; the “tumour outcome (control, treated, inhibition, significance)” value (Carcinogen: N-BUTYL-N-(4-HYDROXYBUTYL)NITROSAMINE, 600 UG THYMOSIN FRACTION 5 2/WK FOR 12 WK BEGINNING POST CARCINOGEN TREATMENT (STUDY DURATION: 20 WK), Route [Inhibitor]: SUBCUTANEOUS, Species: MOUSE, Strain/Sex: NON/SHI/MALE, Target Tissue: Type of Lesion: URINARY BLADDER: CARCINOMA, Dose [Carcinogen]: 0.05% IN DRINKING WATER FOR 8 WK) was 25/31 (81%), 15/32 (47%), 42%, p<0.01 and 19/29 (66%), 23/29 (79%), -20%, not significant; the “tumour outcome (control, treated, inhibition, significance)” value (Carcinogen: N-BUTYL-N-(4-HYDROXYBUTYL)NITROSAMINE, 600 UG THYMOSIN FRACTION 5 IN 100 µL SALINE INJECTED INTO RIGHT THIGH 2/WK FOR 30 WK (STUDY DURATION: 30 WK), Route [Inhibitor]: INTRAMUSCULAR, Species: RAT, Strain/Sex: WISTAR/FEMALE, Target Tissue: Type of Lesion: BLADDER: CARCINOMA, Dose [Carcinogen]: 0.025% (W/V) SOLUTION IN DRINKING WATER WITH 0.0005% (W/V) TWEEN 80 FOR 30 WK) is reported as 9/11 (82%), 2/11 (18%), 78%, p<0.05; the “tumour outcome (control, treated, inhibition, significance)” value (Carcinogen: PHENACETIN, 62-44-2, N-BUTYL-N-(4-HYDROXYBUTYL)NITROSAMINE, Carcinogen: PHENACETIN, 62-44-2, N-BUTYL-N-(4-HYDROXYBUTYL)NITROSAMINE, 60 UG IN 0.1 ML SALINE 2/WK FOR 6 WK CONCURRENTLY WITH BBN TREATMENT (STUDY DURATION: 30 WK), Route [Inhibitor]: SUBCUTANEOUS, Species: MOUSE, Strain/Sex: NON/SHI/MALE, Target Tissue: Type of Lesion: RENAL PELVIS: CARCINOMA, Dose [Carcinogen]: 2% PHENACETIN IN DIET FOR 8 WK FOLLOWED BY 0.05% BBN IN DRINKING WATER FOR 6 WK) is listed as 2/11 (18%), 5/11 (45%), -150%, not significant. Besides, the “tumour outcome (control, treated, inhibition, significance)” value reads like this: (Carcinogen: PHENACETIN, 62-44-2, N-BUTYL-N-(4-HYDROXYBUTYL)NITROSAMINE, Carcinogen: PHENACETIN, 62-44-2, N-BUTYL-N-(4-HYDROXYBUTYL)NITROSAMINE, 60 UG IN 0.1 ML SALINE 2/WK FOR 6 WK CONCURRENTLY WITH BBN TREATMENT (STUDY DURATION: 30 WK), Route [Inhibitor]: SUBCUTANEOUS, Species: MOUSE, Strain/Sex: NON/SHI/MALE, Target Tissue: Type of Lesion: URINARY BLADDER: CARCINOMA, Dose [Carcinogen]: 2% PHENACETIN IN DIET FOR 8 WK FOLLOWED BY 0.05% BBN IN DRINKING WATER FOR 6 WK) 2/11 (18%), 2/11 (18%), 0%, not significant; (Carcinogen: PHENACETIN, 62-44-2, N-BUTYL-N-(4-HYDROXYBUTYL)NITROSAMINE, Carcinogen: PHENACETIN, 62-44-2, N-BUTYL-N-(4-HYDROXYBUTYL)NITROSAMINE, 60 UG IN 0.1 ML SALINE 2/WK FOR 6 WK CONCURRENTLY WITH BBN TREATMENT (STUDY DURATION: 34 WK), Route [Inhibitor]: SUBCUTANEOUS, Species: MOUSE, Strain/Sex: NON/SHI/MALE, Target Tissue: Type of Lesion: RENAL PELVIS: CARCINOMA, Dose [Carcinogen]: 2% PHENACETIN IN DIET FOR 12 WK FOLLOWED BY 0.05% BBN IN DRINKING WATER FOR 6 WK) 9/20 (45%), 12/19 (63%), -40%, not significant.
